Patent US20020106707A1, “Compositions and methods for detecting and quantifying COX-2 activity and anandamide metabolites” (priority 2000, published 2002)
Where two headings read alike, the source gives them in different places. Values belong to the compound of their own block, whether it stands above or below them.

What was measured:
[1] = rat
COX-2 = biological target: T1, COX-2 (Mus musculus, UniProt Q05769); conditions: 3 μM inhibitor; RAW264.7 cells activated with LPS (1 μg/mL) and IFN-γ (10 units/mL), AEA 20 μM
T1 sequence (Q05769 18-604): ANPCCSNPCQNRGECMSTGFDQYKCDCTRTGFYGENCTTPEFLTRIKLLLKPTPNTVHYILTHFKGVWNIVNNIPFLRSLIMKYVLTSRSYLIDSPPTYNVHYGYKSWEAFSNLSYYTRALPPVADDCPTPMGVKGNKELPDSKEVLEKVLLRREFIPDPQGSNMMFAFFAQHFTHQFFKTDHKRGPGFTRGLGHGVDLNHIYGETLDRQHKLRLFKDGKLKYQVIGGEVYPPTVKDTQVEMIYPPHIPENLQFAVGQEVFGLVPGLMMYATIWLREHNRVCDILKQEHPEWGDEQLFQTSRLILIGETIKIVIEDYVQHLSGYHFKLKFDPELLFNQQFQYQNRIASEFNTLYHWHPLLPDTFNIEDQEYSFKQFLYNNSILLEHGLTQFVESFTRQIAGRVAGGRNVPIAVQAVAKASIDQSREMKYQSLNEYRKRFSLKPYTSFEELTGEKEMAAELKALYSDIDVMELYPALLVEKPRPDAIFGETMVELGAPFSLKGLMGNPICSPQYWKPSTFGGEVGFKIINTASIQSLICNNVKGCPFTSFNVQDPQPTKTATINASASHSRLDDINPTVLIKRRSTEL

detection at 2 hours post-dosing ([1]; in vivo, iv, 2 mg/kg): routinely detected
Compound: CCCCCC(=O)CCC1C(O)CC(=O)C1C/C=C\CCCC(=O)NCCO (centres unmarked) [13,14-dihydro-15-keto-PGE2-EA]

Compound: CCCCC[C@H](O)/C=C/[C@H]1[C@H](O)CC(=O)[C@@H]1C/C=C\CCCC(=O)NCCO [PGE2-EA, prostaglandin E2 ethanolamide]
apparent volume of distribution ([1]; 2 mg/kg PGE2-EA IV): 300 to 400 mL
detection at 2 hours post-dosing ([1]; 2 mg/kg PGE2-EA IV, 2 hours post-dosing): routinely detected
calculated plasma half-life ([1]; 2 mg/kg PGE2-EA IV, n=3): 6.33 ± 0.833 min

PGD2-EA biosynthesis (COX-2): inhibited
Compound: COc1ccc2c(c1)c(CC(=O)NCCc1ccccc1)c(C)n2C(=O)c1ccc(Cl)cc1 [indomethacin phenethylamide, 2-[1-(4-chlorobenzoyl)-5-methoxy-2-methyl-1H-indol-3-yl]-N-phenethylacetamide]
